Patent US10125134B2 (Mirati Therapeutics, Inc., priority 2016, dated 2018)
Counter-ions that a name gives are not always drawn. Like-named read-outs stand apart in the source and are kept apart here.

Experiments:
[1] = tested on: NCI-H358 cells (express KRas G12C), Phospho-ERK; assay: Cellular inhibition of KRas G12C: Phospho-ERK in NCI-H358 cells; format: cell-based; settings: pERK(Thr202/Tyr204) normalized with GAPDH, NCI-H358 cells, 3 hours, read-out: IC50
Method in brief: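 IC50 derived by 4-parameter fit of GAPDH-normalized pERK(Thr202/Tyr204) signal, as percent of DMSO control. Signal came from in-cell immunodetection with infrared secondaries after 3 h compound exposure of KRas G12C NCI-H358 cells at 0.5% DMSO.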

KRas G12C = KRas G12C (Homo sapiens, UniProt P01116, C118S/C51S/C80L/G12C); assay: KRas G12C Modification Assay (LCMS detection of covalent adduct); format: binding; settings: normalized percent of control; tested at 5 μM concentration for 3 hours
Method in brief: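 Cys-light KRas G12C mutant protein incubated with compound in K-Ras assay buffer, reactions quenched at set time points with 25 mM acetic acid and analysed by intact-protein LC/MS on a C-3 column. Deconvoluted mass heights expressed as percent of control (POC) relative to compound-free protein.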

Question: Which results are given for `Cc1cccc2cccc(N3CCc4c(nc(OC[C@@H]5CCCN5C)nc4N4CCN(C(=O)/C=C/CN5CCOCC5)[C@@H](CC#N)C4)C3)c12` [Example 457, 2-[(2S)-4-[7-(8-methyl-1-naphthyl)-2-[[(2S)-1-methylpyrrolidin-2-yl]methoxy]-6,8-dihydro-5H-pyrido[3,4-d]pyrimidin-4-yl]-1-[(E)-4-morpholinobut-2-enoyl]piperazin-2-yl]acetonitrile]?
Answer: IC50 ([1]; Homo sapiens, NCI-H358, 3 h): 0.1 to 1000 nM; POC (KRas G12C): C (“C”>50% POC)

Question: Which IC50 ([1]; Homo sapiens) does the source give for `C=CC(=O)N1CCN(c2nc(O[C@H](C)CN(C)C)nc3c2CCN(c2c(C)ccc(F)c2O)C3)CC1` [Example 87, (R)-1-(4-(2-((1-(dimethylamino)propan-2-yl)oxy)-7-(3-fluoro-2-hydroxy-6-methylphenyl)-5,6,7,8-tetrahydropyrido[3,4-d]pyrimidin-4-yl)piperazin-1-yl)prop-2-en-1-one] here?
Answer: The IC50 was greater than 1000 nM.

Question: What about the POC (KRas G12C) of the same compound?
Answer: Its POC is “A (“A”≤25% POC)”.

Question: Which IC50 ([1]; Homo sapiens, NCI-H358, 3 h) does the source give for `C=CC(=O)N1CCN(c2nc(OC[C@@H]3CCCN3C)nc3c2CCN(c2cnccc2C(F)(F)F)C3)CC1CC#N` (stereo partly drawn) [Example 212, 2-(1-acryloyl-4-(2-(((S)-1-methylpyrrolidin-2-yl)methoxy)-7-(4-(trifluoromethyl)pyridin-3-yl)-5,6,7,8-tetrahydropyrido[3,4-d]pyrimidin-4-yl)piperazin-2-yl)acetonitrile] here?
Answer: The IC50 was 0.1 to 1000 nM.

Question: And the POC (KRas G12C)?
Answer: The POC was “C (“C”>50% POC)”.

Question: For `C=CC(=O)N1CCN(c2nc(OCC3COCCN3C)nc3c2CCN(c2cc(O)cc4ccccc24)C3)CC1` (centres unmarked) [Example 194, 1-(4-(7-(3-hydroxynaphthalen-1-yl)-2-((4-methylmorpholin-3-yl)methoxy)-5,6,7,8-tetrahydropyrido[3,4-d]pyrimidin-4-yl)piperazin-1-yl)prop-2-en-1-one], which IC50 ([1]; Homo sapiens, NCI-H358, 3 h) is on record?
Answer: Its IC50 is greater than 1000 nM.

Question: And the POC (KRas G12C)?
Answer: The POC was “C (“C”>50% POC)”.

Question: For `C=CC(=O)N1CCN(c2nc(OC[C@@H]3CCCN3C)nc3c2CCN(c2c(C)c(C)cc4[nH]ncc24)C3)CC1` [Example 451, 1-[4-[7-(5,6-dimethyl-1H-indazol-4-yl)-2-[[(2S)-1-methylpyrrolidin-2-yl]methoxy]-6,8-dihydro-5H-pyrido[3,4-d]pyrimidin-4-yl]piperazin-1-yl]prop-2-en-1-one], which IC50 ([1]; Homo sapiens, NCI-H358, 3 h) is on record?
Answer: The IC50 was 0.1 to 1000 nM.

Question: What about the POC (KRas G12C) of the same compound?
Answer: The POC was “C (“C”>50% POC)”.

Question: How did the IC50 ([1]; Homo sapiens, NCI-H358, 3 h) turn out when `C=CC(=O)N1CCN(c2nc(OC[C@@H]3CCCN3C)nc3c2CCN(c2cccc(F)c2C(F)(F)F)C3)CC1CC#N` (stereo partly drawn) [Example 230, 2-(1-acryloyl-4-(7-(3-fluoro-2-(trifluoromethyl)phenyl)-2-(((S)-1-methylpyrrolidin-2-yl)methoxy)-5,6,7,8-tetrahydropyrido[3,4-d]pyrimidin-4-yl)piperazin-2-yl)acetonitrile] was run?
Answer: Its IC50 is 0.1 to 1000 nM.

Question: What about the POC (KRas G12C) of the same compound?
Answer: The POC was “C (“C”>50% POC)”.

Question: Which IC50 ([1]; Homo sapiens, NCI-H358, 3 h) does the source give for `C=CC(=O)N1CCN(c2nc(OCCN(C)C)nc3c2CCN(c2cc(O)cc4ccccc24)C3)CC1` [Example 9, 1-(4-(2-(2-(dimethylamino)ethoxy)-7-(3-hydroxynaphthalen-1-yl)-5,6,7,8-tetrahydropyrido[3,4-d]pyrimidin-4-yl)piperazin-1-yl)prop-2-en-1-one] here?
Answer: Its IC50 is greater than 1000 nM.

Question: What about the POC (KRas G12C) of the same compound?
Answer: The POC was “C (“C”>50% POC)”.

Question: `C=CC(=O)N1CCN(c2nc(OCCN(C)C)nc3c2CCN(c2cc(O)cc4ccccc24)C3)CC1CO` (centres unmarked) [Example 50, 1-(4-(2-(2-(dimethylamino)ethoxy)-7-(3-hydroxynaphthalen-1-yl)-5,6,7,8-tetrahydropyrido[3,4-d]pyrimidin-4-yl)-2-(hydroxymethyl)piperazin-1-yl)prop-2-en-1-one] was tested. Which IC50 ([1]; Homo sapiens, NCI-H358, 3 h) did it give?
Answer: The IC50 was greater than 1000 nM.

Question: What about the POC (KRas G12C) of the same compound?
Answer: Its POC is “C (“C”>50% POC)”.

Question: `C=CC(=O)N1CCN(c2ncnc3c2CCN(c2cc(O)cc4ccccc24)C3)CC1` [Example 1, 1-(4-(7-(3-hydroxynaphthalen-1-yl)-5,6,7,8-tetrahydropyrido[3,4-d]pyrimidin-4-yl)piperazin-1-yl)prop-2-en-1-one] was tested. Which IC50 ([1]; Homo sapiens, NCI-H358, 3 h) did it give?
Answer: Its IC50 is greater than 1000 nM.

Question: And the POC (KRas G12C)?
Answer: Its POC is “B (“B”>25% POC−≤50% POC)”.

Question: With `C=CC(=O)N1CCN(c2nc(OC[C@@H]3CCCN3CC(=O)N(C)C)nc3c2CCN(c2cccc4ccccc24)C3)C[C@@H]1CC#N` [Example 401, 2-((S)-2-(((4-((S)-4-acryloyl-3-(cyanomethyl)piperazin-1-yl)-7-(naphthalen-1-yl)-5,6,7,8-tetrahydropyrido[3,4-d]pyrimidin-2-yl)oxy)methyl)pyrrolidin-1-yl)-N,N-dimethylacetamide] as the compound, how does the IC50 ([1]; Homo sapiens, NCI-H358, 3 h) read?
Answer: Its IC50 is 0.1 to 1000 nM.

Question: What about the POC (KRas G12C) of the same compound?
Answer: The POC was “C (“C”>50% POC)”.

Question: `CN1CCC[C@H]1COc1nc2c(c(N3CCN(C(=O)/C=C/CN4CCCCC4)[C@@H](CC#N)C3)n1)CCN(c1cccc3ccccc13)C2` [Example 236, 2-((S)-4-(2-(((S)-1-methylpyrrolidin-2-yl)methoxy)-7-(naphthalen-1-yl)-5,6,7,8-tetrahydropyrido[3,4-d]pyrimidin-4-yl)-1-(E-4-(piperidin-1-yl)but-2-enoyl)piperazin-2-yl)acetonitrile] was tested. Which IC50 ([1]; Homo sapiens, NCI-H358, 3 h) did it give?
Answer: Its IC50 is 0.1 to 1000 nM.

Question: And the POC (KRas G12C)?
Answer: The POC was “C (“C”>50% POC)”.

Question: For `C=CC(=O)N1CCN(c2nc(OCC3CN(C)CCN3)nc3c2CCN(c2cc(O)cc4ccccc24)C3)CC1` (centres unmarked) [Example 80, 1-(4-(7-(3-hydroxynaphthalen-1-yl)-2-((4-methylpiperazin-2-yl)methoxy)-5,6,7,8-tetrahydropyrido[3,4-d]pyrimidin-4-yl)piperazin-1-yl)prop-2-en-1-one], which IC50 ([1]; Homo sapiens, NCI-H358, 3 h) is on record?
Answer: Its IC50 is greater than 1000 nM.

Question: What about the POC (KRas G12C) of the same compound?
Answer: Its POC is “C (“C”>50% POC)”.

Question: For `C=CC(=O)N1CCN(c2nc(OCCN(C)C)nc3c2CC(C)N(c2cc(O)cc4ccccc24)C3)CC1` (centres unmarked) [Example 48, 1-(4-(2-(2-(dimethylamino)ethoxy)-7-(3-hydroxynaphthalen-1-yl)-6-methyl-5,6,7,8-tetrahydropyrido[3,4-d]pyrimidin-4-yl)piperazin-1-yl)prop-2-en-1-one trifluoroacetate], which IC50 ([1]; Homo sapiens) is on record?
Answer: Its IC50 is greater than 1000 nM.

Question: And the POC (KRas G12C)?
Answer: Its POC is “C (“C”>50% POC)”.

Question: How did the IC50 ([1]; Homo sapiens, NCI-H358, 3 h) turn out when `C=CC(=O)N1CCN(c2nc(OCCN(CC)CC)nc3c2CCN(c2ccccc2C(F)(F)F)C3)CC1CC#N` (centres unmarked) [Example 284, 2-(1-acryloyl-4-(2-(2-(diethylamino)ethoxy)-7-(2-(trifluoromethyl)phenyl)-5,6,7,8-tetrahydropyrido[3,4-d]pyrimidin-4-yl)piperazin-2-yl)acetonitrile] was run?
Answer: Its IC50 is 0.1 to 1000 nM.

Question: What about the POC (KRas G12C) of the same compound?
Answer: Its POC is “C (“C”>50% POC)”.

Question: Which results are given for `C=CC(=O)N1CCN(c2nc(O[C@H](C)[C@H]3CCCN3C)nc3c2CCN(c2cc(O)cc4ccccc24)C3)CC1` [Example 129, 1-[4-[7-(3-hydroxy-1-naphthyl)-2-[(1R)-1-[(2R)-1-methylpyrrolidin-2-yl]ethoxy]-6,8-dihydro-5H-pyrido[3,4-d]pyrimidin-4-yl]piperazin-1-yl]prop-2-en-1-one]?
Answer: IC50 ([1]; Homo sapiens, NCI-H358, 3 h): 0.1 to 1000 nM; POC (KRas G12C): C (“C”>50% POC)

Question: For `CC#CC(=O)N1CCN(c2nc(OC[C@@H]3CCCN3C)nc3c2CCN(c2cccc4ccccc24)C3)CC1CC#N` (stereo partly drawn) [Example 376, 2-(1-(but-2-ynoyl)-4-(2-(((S)-1-methylpyrrolidin-2-yl)methoxy)-7-(naphthalen-1-yl)-5,6,7,8-tetrahydropyrido[3,4-d]pyrimidin-4-yl)piperazin-2-yl)acetonitrile 2,2,2-trifluoroacetate], which IC50 ([1]; Homo sapiens, NCI-H358, 3 h) is on record?
Answer: The IC50 was 0.1 to 1000 nM.

Question: And the POC (KRas G12C)?
Answer: Its POC is “C (“C”>50% POC)”.

Question: With `C=CC(=O)N1CCN(c2nc(N3CC[C@H](N(C)C)C3)nc3c2CCN(c2cccc4ccccc24)C3)C[C@@H]1CC#N` [Example 402] as the compound, how does the IC50 ([1]; Homo sapiens, NCI-H358, 3 h) read?
Answer: The IC50 was 0.1 to 1000 nM.

Question: What about the POC (KRas G12C) of the same compound?
Answer: The POC was “C (“C”>50% POC)”.

Question: What does the source list for `C=CC(=O)N1CCN(c2nc(O[C@H](C)CN3CCN(C(C)=O)CC3)nc3c2CCN(c2cc(O)cc4ccccc24)C3)CC1` [Example 36, (R)-1-(4-(2-((1-(4-acetylpiperazin-1-yl)propan-2-yl)oxy)-7-(3-hydroxynaphthalen-1-yl)-5,6,7,8-tetrahydropyrido[3,4-d]pyrimidin-4-yl)piperazin-1-yl)prop-2-en-1-one]?
Answer: IC50 ([1]; Homo sapiens, NCI-H358, 3 h): > 1000 nM; POC (KRas G12C): C (“C”>50% POC)

Question: With `C=CC(=O)N1CCN(c2nc(O[C@H](C)CN(C)C)nc3c2CCN(c2cc(OC(F)(F)F)ccc2O)C3)CC1` [Example 86, (R)-1-(4-(2-((1-(dimethylamino)propan-2-yl)oxy)-7-(2-hydroxy-5-(trifluoromethoxy)phenyl)-5,6,7,8-tetrahydropyrido[3,4-d]pyrimidin-4-yl)piperazin-1-yl)prop-2-en-1-one] as the compound, how does the IC50 ([1]; Homo sapiens) read?
Answer: Its IC50 is greater than 1000 nM.

Question: And the POC (KRas G12C)?
Answer: Its POC is “A (“A”≤25% POC)”.

Question: With `C=CC(=O)N1C[C@H](C)N(c2nc(OC[C@@H]3CCCN3C)nc3c2CCN(c2cccc4ccccc24)C3)C[C@@H]1CC#N` [Example 368, 2-((2S,5S)-1-acryloyl-5-methyl-4-(2-(((S)-1-methylpyrrolidin-2-yl)methoxy)-7-(naphthalen-1-yl)-5,6,7,8-tetrahydropyrido[3,4-d]pyrimidin-4-yl)piperazin-2-yl)acetonitrile] as the compound, how does the IC50 ([1]; Homo sapiens, NCI-H358, 3 h) read?
Answer: The IC50 was greater than 1000 nM.

Question: And the POC (KRas G12C)?
Answer: Its POC is “C (“C”>50% POC)”.

Question: For `C=CC(=O)N1CCN(c2nc(O[C@H](C)CN(C)C)nc3c2CCN(c2c(C)cccc2O)C3)CC1` [Example 95, (R)-1-(4-(2-((1-(dimethylamino)propan-2-yl)oxy)-7-(2-hydroxy-6-methylphenyl)-5,6,7,8-tetrahydropyrido[3,4-d]pyrimidin-4-yl)piperazin-1-yl)prop-2-en-1-one], which IC50 ([1]; Homo sapiens) is on record?
Answer: The IC50 was greater than 1000 nM.

Question: And the POC (KRas G12C)?
Answer: Its POC is “A (“A”≤25% POC)”.

Question: With `C=CC(=O)N1CCN(c2nc(OCCCN3C[C@H]4C[C@@H]3CO4)nc3c2CCN(c2ccccc2C(F)(F)F)C3)CC1CC#N` (stereo partly drawn) [Example 297, 2-[4-[2-[3-[(1R,4R)-2-oxa-5-azabicyclo[2.2.1]heptan-5-yl]propoxy]-7-[2-(trifluoromethyl)phenyl]-6,8-dihydro-5H-pyrido[3,4-d]pyrimidin-4-yl]-1-prop-2-enoyl-piperazin-2-yl]acetonitrile] as the compound, how does the IC50 [1] read?
Answer: Its IC50 is 0.1 to 1000 nM.

Question: And the POC (KRas G12C)?
Answer: The POC was “C (“C”>50% POC)”.
